Measurements published in ChEMBL document CHEMBL1159092, “Polar 3-alkylidene-5-pivaloyloxymethyl-5'-hydroxymethyl-gamma-lactones as protein kinase C ligands and antitumor agents” (Bioorg Med Chem Lett, 2010).
In brackets after ≈: the same amount, converted by molar mass.

Experiments:
HL-60 = experiment: Antitumor activity against human HL60 cells; type: functional
K562 = experiment: Antitumor activity against human K562 cells; type: functional
[1] = Antitumor activity against human Hs 578T cells; type: functional
COLO 205 = experiment: Antitumor activity against human COLO205 cells; type: functional
SK-MEL-5 = experiment: Antitumor activity against human SK-MEL-5 cells; type: functional
CCRF-CEM = experiment: Antitumor activity against human CCRF-CEM cells; type: functional
[2] = Antitumor activity against human NCI-H322 cells; type: functional
[3] = target: Protein kinase C alpha type (Homo sapiens, UniProt P17252); experiment: Displacement of [20-3H]phorbol 12,13-dibutyrate from recombinant PKCalpha
MOLT-4F = experiment: Antitumor activity against human MOLT4F cells; type: functional

Compound | GI50 (HL-60) [µg/mL] | GI50 (K562) [µg/mL] | GI50 [1] [µg/mL] | GI50 (COLO 205) [µg/mL] | GI50 (SK-MEL-5) [µg/mL] | GI50 (CCRF-CEM) [µg/mL] | GI50 [2] [µg/mL] | Ki [3] [nM] | GI50 (MOLT-4F) [µg/mL]
CCCCCCCCCCCCC/C=C1\CC(CO)(COC(=O)C(C)(C)C)OC1=O (stereo not given) | 2.4 (≈ 5.65 µM) | < 0.1 | 2.27 (≈ 5.34 µM) | 0.253 (≈ 0.596 µM) | 0.779 (≈ 1.83 µM) | 0.14 (≈ 0.33 µM) | > 10 | 7.83 | 0.227 (≈ 0.535 µM)
CC(C)(C)C(=O)OCC1(CO)C/C(=C\CCCCCCCCCCCCCCCN=[N+]=[N-])C(=O)O1 (stereo not given) | – | – | – | – | – | – | – | 15.6 | –
COCCCCCCCCCCC/C=C1\CC(CO)(COC(=O)C(C)(C)C)OC1=O (stereo not given) | 5.22 (≈ 12.2 µM) | 0.516 (≈ 1.21 µM) | 7.34 (≈ 17.2 µM) | 0.541 (≈ 1.27 µM) | 2.81 (≈ 6.58 µM) | 0.701 (≈ 1.64 µM) | > 10 | 8.2 | 2.38 (≈ 5.59 µM)
CCCCCCCCC(O)CCCCCC/C=C1\CC(CO)(COC(=O)C(C)(C)C)OC1=O (stereo not given) | > 10 | 7.3 (≈ 15.6 µM) | > 10 | 8.91 (≈ 19 µM) | > 10 | 5.71 (≈ 12.2 µM) | > 10 | 118 | 7.91 (≈ 16.9 µM)
COCCCCCCC/C=C1\CC(CO)(COC(=O)C(C)(C)C)OC1=O (stereo not given) | – | – | – | – | – | – | – | 191 | –
CC(=O)OCCCCCCCCCCCCCCC/C=C1\CC(CO)(COC(=O)C(C)(C)C)OC1=O (stereo not given) | > 10 | 0.959 (≈ 1.88 µM) | > 10 | 2.1 (≈ 4.11 µM) | 5.62 (≈ 11 µM) | 7.55 (≈ 14.8 µM) | > 10 | 9.3 | 1.55 (≈ 3.03 µM)
CC(C)(C)C(=O)OCC1(CO)C/C(=C\CCCCCCCCCCCO)C(=O)O1 (stereo not given) | > 10 | 1.09 (≈ 2.64 µM) | > 10 | 2.49 (≈ 6.03 µM) | 5.81 (≈ 14.1 µM) | 0.65 (≈ 1.58 µM) | > 10 | 14.5 | 1.34 (≈ 3.26 µM)
CC(C)(C)C(=O)OCC1(CO)C/C(=C\CCCCCCCO)C(=O)O1 (stereo not given) | – | – | – | – | – | – | – | 378 | –
COCCCCCCCCCCCCCCC/C=C1\CC(CO)(COC(=O)C(C)(C)C)OC1=O (stereo not given) | 4.65 (≈ 9.64 µM) | 0.189 (≈ 0.392 µM) | 5.45 (≈ 11.3 µM) | 0.118 (≈ 0.244 µM) | 1.75 (≈ 3.63 µM) | 4.26 (≈ 8.83 µM) | > 10 | 4.4 | 0.498 (≈ 1.03 µM)
CCCCCCCCCCCCC/C=C1/CC(CO)(COC(=O)C(C)(C)C)OC1=O (stereo not given) | – | – | – | – | – | – | – | 7.15 | –
CC(C)(C)C(=O)OCCCCCCCCCCCCCCC/C=C1\CC(CO)(COC(=O)C(C)(C)C)OC1=O (stereo not given) | 7.78 (≈ 14.1 µM) | 0.352 (≈ 0.637 µM) | 5.24 (≈ 9.48 µM) | 0.597 (≈ 1.08 µM) | 3.46 (≈ 6.25 µM) | > 10 | > 10 | 10.5 | 0.605 (≈ 1.09 µM)
CC(C)CCOCCCCCCC/C=C1\CC(CO)(COC(=O)C(C)(C)C)OC1=O (stereo not given) | – | – | – | – | – | – | – | 7.74 | –
CC(C)(C)C(=O)OCC1(CO)C/C(=C\CCCCCCCCCCCCCCCOC=O)C(=O)O1 (stereo not given) | – | – | – | – | – | – | – | 8 | –
CC(=O)NCCCCCCCCCCCCCCC/C=C1\CC(CO)(COC(=O)C(C)(C)C)OC1=O (stereo not given) | > 10 | 3.38 (≈ 6.64 µM) | > 10 | 4.74 (≈ 9.29 µM) | > 10 | 1.08 (≈ 2.11 µM) | > 10 | 8.25 | 6.35 (≈ 12.5 µM)
CCCCCCCCCOCCCCCCC/C=C1\CC(CO)(COC(=O)C(C)(C)C)OC1=O (stereo not given) | 4.53 (≈ 9.37 µM) | 0.156 (≈ 0.323 µM) | 4.64 (≈ 9.61 µM) | 0.264 (≈ 0.547 µM) | 1.43 (≈ 2.96 µM) | 0.304 (≈ 0.63 µM) | > 10 | 3.2 | 2.14 (≈ 4.43 µM)
CC(C)(C)C(=O)OCC1(CO)C/C(=C\CCCCCCCCCCCCCCCO)C(=O)O1 (stereo not given) | – | – | – | – | – | – | – | 6.4 | –

Compound | GI50 (HL-60) [µg/mL] | GI50 (K562) [µg/mL] | GI50 [1] [µg/mL] | GI50 (COLO 205) [µg/mL] | GI50 (SK-MEL-5) [µg/mL] | GI50 (CCRF-CEM) [µg/mL] | GI50 [2] [µg/mL] | Ki [3] [nM] | GI50 (MOLT-4F) [µg/mL]
COC(=O)CCCCCCCCCCCCCC/C=C1\CC(CO)(COC(=O)C(C)(C)C)OC1=O (stereo not given) | > 10 | 0.856 (≈ 1.72 µM) | > 10 | 3.86 (≈ 7.77 µM) | 7.8 (≈ 15.7 µM) | 0.691 (≈ 1.39 µM) | > 10 | 6.83 | > 10
CC(C)(C)C(=O)OCC1(CO)C/C(=C/CCCCCCCCCCCCCCC=O)C(=O)O1 (stereo not given) | > 10 | 2.58 (≈ 5.53 µM) | > 10 | 5.14 (≈ 11 µM) | > 10 | > 10 | > 10 | 11.4 | 2.02 (≈ 4.33 µM)
CC(C)(C)C(=O)OCC1(CO)C/C(=C\CCCCCCCCCCCCCCC=O)C(=O)O1 (stereo not given) | > 10 | 5.11 (≈ 10.9 µM) | > 10 | > 10 | > 10 | 0.933 (≈ 2 µM) | > 10 | 6.38 | > 10
COCCOCOCCCCCCC/C=C1\CC(CO)(COC(=O)C(C)(C)C)OC1=O (stereo not given) | – | – | – | – | – | – | – | 323 | –
CC(C)(C)C(=O)OCC1(CO)C/C(=C\CCCCCCC=O)C(=O)O1 (stereo not given) | – | – | – | – | – | – | – | 39.3 | –
CC(C)(C)C(=O)OCC1(CO)C/C(=C\CCCCCCCCCCC=O)C(=O)O1 (stereo not given) | – | – | – | – | – | – | – | 30.3 | –
CC(C)(C)C(=O)OCC1(CO)C/C(=C/CCCCCCCCCCCCCCCO)C(=O)O1 (stereo not given) | 6.39 (≈ 13.6 µM) | 0.872 (≈ 1.86 µM) | > 10 | 2.34 (≈ 4.99 µM) | 5.34 (≈ 11.4 µM) | 6.63 (≈ 14.1 µM) | > 10 | 8.24 | 1.37 (≈ 2.93 µM)
COCOCCCCCCC/C=C1\CC(CO)(COC(=O)C(C)(C)C)OC1=O (stereo not given) | > 10 | 3.69 (≈ 9.22 µM) | > 10 | 2.01 (≈ 5.01 µM) | 8.33 (≈ 20.8 µM) | > 10 | > 10 | 198 | 1.84 (≈ 4.6 µM)
CCCCCOCCCCCCC/C=C1\CC(CO)(COC(=O)C(C)(C)C)OC1=O (stereo not given) | 2.96 (≈ 6.94 µM) | 1.15 (≈ 2.69 µM) | 3 (≈ 7.04 µM) | 0.491 (≈ 1.15 µM) | 2.99 (≈ 7.02 µM) | 0.877 (≈ 2.06 µM) | 9.52 (≈ 22.3 µM) | 8.1 | 1.03 (≈ 2.41 µM)
COc1cccc2c1C(=O)c1c(O)c3c(c(O)c1C2=O)C[C@@](O)(C(=O)CO)C[C@@H]3O[C@H]1C[C@H](N)[C@H](O)[C@H](C)O1.Cl [DOXORUBICIN HYDROCHLORIDE] | 0.413 | 0.375 | 0.596 | 0.523 | 0.481 | 0.181 | 0.615 | – | 0.277
COCCCCCCCCCCCCCCC/C=C1/CC(CO)(COC(=O)C(C)(C)C)OC1=O (stereo not given) | 3.97 (≈ 8.22 µM) | 0.138 (≈ 0.286 µM) | 6.77 (≈ 14 µM) | 0.178 (≈ 0.369 µM) | 2.13 (≈ 4.42 µM) | < 0.1 | > 10 | 5 | 1.64 (≈ 3.4 µM)
CC(C)(C)C(=O)OCC1(CO)C/C(=C\CCCCCCCOC2CCCC2)C(=O)O1 (stereo not given) | – | – | – | – | – | – | – | 10.2 | –
CC(C)(C)C(=O)OCC1(CO)C/C(=C\CCCCCCCCCCCCCCCN)C(=O)O1 (stereo not given) | > 10 | 1.52 (≈ 3.25 µM) | > 10 | 1.53 (≈ 3.28 µM) | 5.1 (≈ 10.9 µM) | 2.82 (≈ 6.03 µM) | 8.43 (≈ 18 µM) | 36.4 | 3.17 (≈ 6.77 µM)
CCCCCCCCCOCCC/C=C1\CC(CO)(COC(=O)C(C)(C)C)OC1=O (stereo not given) | – | – | – | – | – | – | – | 7.44 | –
CC(C)(C)C(=O)OCC1(CO)C/C(=C\CCCCCCCCCCCCCCC(=O)O)C(=O)O1 (stereo not given) | – | – | – | – | – | – | – | 29.7 | –
COC(=O)CCCCCC/C=C1\CC(CO)(COC(=O)C(C)(C)C)OC1=O (stereo not given) | – | – | – | – | – | – | – | 533 | –
